According to patent US11957671B2, “Benzodioxane modulators of leukotriene A4 hydrolase (LTA4H) for prevention and treatment of aging-associated diseases” (Alkahest, Inc., priority 2021, dated 2024):

Assays:
[1] = test system: aged wild type (WT; C57BL/6) mice; assay: Histology of astrocytes (GFAP, AQP4) in CA1 hippocampus; format: in vivo, mouse
Experimental: Brains were collected following saline perfusion and separated by mid-sagittal slice with one-half drop fixed in freshly prepared 4% PFA. PFA was changed to 30% sucrose 24-48 hours later. A second change to 30% sucrose occurred 24 hours later. Brain tissue was sectioned or lysed and analyzed for GFAP, AQP4, or IBA1 by standard histological methods. Images were acquired using a confocal microscope or Axioscan slide scanner.
(§1) Three independent cohorts of aged wild type (WT; C57BL/6) mice between twenty to twenty-two months of age (20-22 mo) were homogenized into two (2) groups by body weight, total distance travelled in the open field test, and average velocity in the open field test. Group 1 was administered vehicle control PO daily. Group 2 was administered 10 mg/kg of the LTA4H inhibitor Compound 1 PO daily. Both groups were dosed for either 10 days or 4 weeks daily. Behavioral assays were run during the last week of dosing and animals were sacrificed at the end of the study for histological and molecular assays.
FIGS. 22-30 report the results of the histology of astrocytes. GFAP is a pan astrocytic marker that was used to measure total number and size of astrocytes as a readout for astrocyte reactivity. AQP4 is a water channel expressed in astrocyte endfeet that line the blood-brain barrier. GFAP and AQP4 are increased with age and diseases with cognitive decline and BBB impairment (Kress B T et al., Ann Neurol, 76(6):845-61 (2014), Owasil R et al., Int J Mol Sci, 21(4) (2020), and Qi L et al., Life Sci, 88(1-2):50-56)). FIG. 22 reports GFAP percent area (Mann-Whitney test. (n=10, 10)), FIG. 23 reports the number of GFAP+ cells (Mann-Whitney test. (n=10, 10)), and FIG. 24 reports the average size of GFAP+ cells (Mann-Whitney test. (n=10, 10)) in the CA1 region of the hippocampus following 10 days of dosing. FIG. 25 reports the AQP4 intensity across a 60 micron (um) long line drawn across the large descending vessels of the CA1 hippocampus after 10 days of dosing with vehicle or Compound 1.

[2] = Pharmacokinetic Measurement of Compound 1 (LC-MS/MS); format: in vivo, mouse; settings: C57BL/6 mice
Source text: The mice are subjected to cardiac puncture and blood samples were collected using syringes pre-filled with K2EDTA or heparin. […] Hemi-brain tissue was homogenized with 3× volumes of ice-cold water, then further diluted 2× with blank mouse plasma prior to analysis. […]

[3] = test system: Transgenic Notch3R169C mice; assay: CADASIL Mouse Model, Example 10; format: in vivo; settings: 1 mg/kg PO bid for four months
Experimental: Transgenic Notch3^R169C mice are obtained along with transgenic Notch3^WT and/or wild type mice as described previously (Ghosh M, et al., Ann Neurol., 78(6):887-900 (2015); Rajani R M, et al., Acta Neuropathologica Comm., 7(187) (2019); and Joutel A, et al., J. Clin. Invest., 120(2):433-45 (2010), herein incorporated by reference in their entirety). Twenty Notch3R169c mice and 10 littermate control 5-month-old wild type mice are dosed with Vehicle or Compound 1 at 1 mg/kg PO bid for four months. Mice are anesthetized and blood and tissues are collected for further analysis.
Transgenic Notch3^R169C mice treated with Vehicle or Compound as described previously in section A (Experimental Procedures supra) have blood collected via cardiac puncture in syringes pre-filled with Heparin. Brains are collected following saline and Heparin infusion and separated by mid-sagittal slice. One half of the brain is drop fixed in 4% PFA and 24 hours later, the brain is changed into a solution of 15% sucrose. A secondary change to 30% sucrose is performed 48 hours after initial fixation in PFA.
Brains are then sectioned to 50 micrometers in thickness using a vibratome and placed on a slide for immunostaining and stained with PDGFRβ and LECTIN antibodies as described previously (Ghosh supra) to show pericyte coverage. The number of PDGFRβ positive pericytes per square millimeter of selected field area in the cortex is analyzed by randomly selecting four fields in nonadjacent sections at approximately 100 μm intervals.
Albumin and fibrinogen presence is measured as a positive signal in the brain parenchyma. The signals are quantified as described previously (Ghosh supra). Transgenic mice treated with Vehicle has increased albumin and fibrinogen leakiness into the brain parenchyma compared to Vehicle treated wild-type controls.
GFAP and AQP4 markers for astrocytes are measured to determine the presence of astrocyte end-feet. Transgenic mice treated with Vehicle is reduced GFAP and AQP4 compared with Vehicle treated wild-type controls. […] AQP4 and GFAP are markers for astrocyte, which make up an important part of the neurovascular unit and are lost in CADASIL mouse models and human patients.

Body weight of aged mice = format: in vivo, mouse
Experimental: as §1

[4] = test system: purified endothelial cells from the brains of aged C57BL/6 mice; assay: Microbulk qPCR of endothelial genes; format: in vivo, mouse; settings: 1 month bid P.O., 1 mg/kg Compound 1 or 2.5 mg/kg SC57461A
Experimental: (§2) Downregulation of the detrimental genes Bsg, Gbp4, and CXCL12 in purified endothelial cells from the brains of mice treated with LTA4H inhibitors Compound 1 or SC57461A were compared to those of vehicle treated mice. Gene expression was measured by qPCR from 500 sorted endothelial cells and was normalized to GAPDH control.
Aged C57BL/6 mice (21 months of age) were treated for 1 month bid P.O. with vehicle, 1 mg/kg Compound 1, or 2.5 mg/kg SC57461A (n=3 mice per treatment group). One cortical cap (cortex and hippocampus) from each mouse was isolated and cells were dissociated using Miltenyi Neutral Dissociation Kit (#130-092-628). Cells were sorted using Sony Multi-Application Cell Sorter MA900 into clean, RNAase free 200 uL PCR strip tube with 5 uL RNAlater at a concentration of 500 cells per tube. RNA was isolated follow kit protocol for Qiagen RNeasy Micro Kit (#74004). cDNA was synthesized using SuperScript III Kit Protocol and qPCR assays were run using TaqMan or SYBR green primers.
as §2, with “beneficial gene, Plat,” for “detrimental genes Bsg, Gbp4, and CXCL12”

[5] = single oral gavage dose 10, 1, 0.3, 0.1 mg/kg

Question: For `O=C(O)C1CCN(Cc2ccc([C@H]3COc4ccccc4O3)cc2)CC1` [Example 1, 1-{4-[(2S)-2,3-dihydro-1,4-benzodioxin-2-yl]benzyl}piperidine-4-carboxylic acid], which “AQP4 intensity across large descending vessels of CA1 hippocampus” value ([1]; 4 weeks of treatment) is on record?
Answer: The value was “reduction in the AQP4 intensity”.

Question: And the “GFAP percent thresholded area, CA1” value ([1]; 4 weeks of treatment)?
Answer: The value was “significant reduction GFAP percent thresholded area”.

Question: What about the “total GFAP+ cell number, CA1” value ([1]; 4 weeks of treatment) of the same molecule?
Answer: The value was “did not change”.

Question: What about the “AQP4 intensity across large descending vessels of CA1 hippocampus” value ([1]; 10 days of dosing) of the same molecule?
Answer: The value was “trending reduction in AQP4 intensity”.

Question: And the brain penetration ([2]; single oral dose)?
Answer: The brain penetration was “brain penetrant, even at low doses”.

Question: What about the “blood levels of Compound 1” value [2, 5] of the same molecule?
Answer: The value was “sustained and detectable in plasma and blood for up to 24 hours”.

Question: What about the “brain levels of Compound 1” value [2, 5] of the same molecule?
Answer: The value was “sustained and detectable for up to 24 hours”.

Question: What about the “plasma levels of Compound 1” value [2, 5] of the same molecule?
Answer: Its value is “sustained and detectable in plasma and blood for up to 24 hours”.

Question: And the “GFAP and AQP4 signal at vessels in the cortex” value [3]?
Answer: The value was “increased positive signal at Lectin-positive vessels”.

Question: And the “additional blood-brain barrier markers in cortices” value [3]?
Answer: The value was “significant levels of improvement”.

Question: And the “albumin and fibrinogen in brain parenchyma” value [3]?
Answer: The value was “reduced albumin and fibrinogen”.

Question: And the “plasma levels of LTB4” value [3]?
Answer: The value was “reduction in plasma levels of LTB4”.

Question: And the “pericyte coverage and number in cortex” value ([3]; versus vehicle-treated transgenic mice)?
Answer: Its value is “increase in pericyte coverage and number”.

Question: And the body weight (Body weight of aged mice; 4 weeks of dosing, first cohort)?
Answer: The body weight was “no change in body weight”.

Question: And the body weight (Body weight of aged mice; 4 weeks of dosing, second cohort)?
Answer: The body weight was “no change in body weight”.

Question: And the body weight (Body weight of aged mice; 4 weeks of dosing, third cohort)?
Answer: Its body weight is “no change in body weight”.

Question: What about the body weight (Body weight of aged mice; 10 days of dosing, first cohort) of the same molecule?
Answer: The body weight was “no change in body weight”.

Question: What about the body weight (Body weight of aged mice; 10 days of dosing, second cohort) of the same molecule?
Answer: The body weight was “no change in body weight”.

Question: And the body weight (Body weight of aged mice; 10 days of dosing, third cohort)?
Answer: The body weight was “no change in body weight”.

Question: What about the Bsg gene expression [4] of the same molecule?
Answer: Its Bsg gene expression is “down regulation of Bsg gene expression”.

Question: What about the CXCL12 gene expression [4] of the same molecule?
Answer: The CXCL12 gene expression was “down regulation of CXCL12 gene expression”.

Question: And the Gpb4 gene expression [4]?
Answer: Its Gpb4 gene expression is “down regulation of Gpb4 gene expression”.

Question: And the Plat gene expression [4]?
Answer: The Plat gene expression was “up regulation of Plat gene expression”.
